Source: PubChem BioAssay AID651630 (Sanford-Burnham Center for Chemical Genomics, 2012)
The source made the active and inactive calls.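 The calls were made as follows: active = lipid-stain IC50 at or below a set limit, with nuclear-stain toxicity IC50 at least five times higher; inactive = the rest.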

Key:
DAPI = experiment: TAG lipid buildup inhibition with viability readout – cell-based, panel, Nile Red and DAPI fluorescence, H9c2, dose response (AID 651630); conditions: H9c2 cells, DAPI nuclear fluorescence (cytotoxicity counter-readout), oleic acid;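 also: cells exposed to compound overnight before fixation and staining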
TAG = experiment: as above; conditions: H9c2 cells, Nile Red TAG fluorescence, oleic acid

| SMILES | IC50 cytotoxicity (DAPI nuclear signal decrease) (DAPI; mean of runs) | IC50 cytotoxicity (DAPI nuclear signal decrease) (DAPI; run 1) [µM] | IC50 cytotoxicity (DAPI nuclear signal decrease) (DAPI; run 2) [µM] | IC50 (TAG; mean of runs) | IC50 (TAG; run 1) [µM] | IC50 (TAG; run 2) [µM] |
| --- | --- | --- | --- | --- | --- | --- |
| COc1ccc(NC(=O)c2nc(C)c(C3(C)CC(c4ccccc4)=NO3)s2)cc1 (configuration not stated) | > 25 µM (inactive) | > 25 | > 25 | 7.56 µM | 4.88 | 10.2 |
| C=CCC[C@@H](Cc1ccc(F)cc1)C(=O)OC[C@@H](Cc1c[nH]c2ccccc12)NC(=O)[C@@H](CC=C)CC(=O)N(CCO)Cc1ccccc1 | > 25 µM (inactive) | > 25 | > 25 | 8.26 µM | 7.1 | 9.42 |
| O=C(OCc1ccc(Br)cc1)c1cc([N+](=O)[O-])ccc1N1CCOCC1 | > 25 µM (inactive) | > 25 | > 25 | > 25 µM (inactive) | > 25 | > 25 |
| CCC(C)Nc1nc(-c2cccc(OC)c2O)nc2ccccc12 (configuration not stated) | > 25 µM (inactive) | > 25 | > 25 | > 25 µM (inactive) | > 25 | > 25 |
| COc1ccc2nc(NC(=O)c3cccc(OCc4c(C)noc4C)c3)sc2c1 | > 25 µM (inactive) | > 25 | > 25 | 17.6 µM (inactive) | 17.4 | 17.8 |
| COc1cc(-c2cc(NC=O)c3ncc(-c4cccc(C(=O)N(C)C)c4)n3c2)cc(OC)c1OC | > 25 µM (inactive) | > 25 | > 25 | 8.89 µM | 5.06 | 12.7 |
| Cc1cc(C)nc(NC(=NCCc2c[nH]c3ccccc23)NC(=O)Nc2ccc(Cl)c(Cl)c2)n1 | > 25 µM (inactive) | > 25 | > 25 | 10.2 µM | 8.52 | 11.8 |
| CCCCCc1cc(=O)oc2c(C(CCN3CCN(c4ccccc4)CC3)c3ccc(N(C)C)cc3)c(OC)cc(OC)c12 (configuration not stated) | > 25 µM (inactive) | > 25 | > 25 | 12.2 µM | 11.2 | 13.2 |
| Cc1cc(NC(=O)CSc2nc3ccccc3c(=O)n2C2CCCC2)no1 | > 25 µM (inactive) | > 25 | > 25 | 9.22 µM | 7.24 | 11.2 |
| COc1ccc(OC)c(C2CC(c3ccccc3)=NN2C(=S)Nc2ccccc2)c1 (configuration not stated) | > 25 µM (inactive) | > 25 | > 25 | > 25 µM (inactive) | > 25 | > 25 |
| COc1ccc2[nH]c3c(c2c1)CCN1C(=O)C(CC(=O)NCc2cccc(C(F)(F)F)c2)C[C@H](C(=O)N2CCCCC2)[C@@]31CCc1ccccc1 (some centres not stated) | > 25 µM (inactive) | > 25 | > 25 | 10 µM | 14.8 | 5.34 |
| CCC(C)(C)NC(=O)C(c1ccc(OC)cc1)N(Cc1cccs1)C(=O)CCC(=O)Nc1cc(C)on1 (configuration not stated) | > 25 µM (inactive) | > 25 | > 25 | 13.3 µM | 13.1 | 13.5 |
